Key:
Format in all cases: cell-based
[1] = tested on: total protein synthesis in HeLa HIVrtTA∆Mls cells; experiment: SUnSET total protein synthesis; conditions: doses that significantly reduced HIV-1 protein expression, ∓Dox
Method: The effect of the compounds on nascent protein synthesis was measured by surface sensing of translation (SUnSET) as described by Schmidt et al.. Cells were incubated with puromycin, an aminoacyl tRNA analog, to allow puromycin incorporation into newly translated peptides and prevention of further ribosomal elongation by chain termination. To assess the effect of the compounds on protein translation, cells were prepared and treated as described above, but were incubated with 10 μg/mL of puromycin for a period of 30 min prior to harvesting cell lysates for protein analysis. Protein concentration of cell lysates was quantified by Bradford assay and equal amounts of protein (30–35 μg) was run on either 10% or 4–15% (gradient) gels. Following transfer to PVDF (BioRad), blots were probed with mouse monoclonal antibody to puromycin (anti-12D10, EMD Millipore). Blots were developed using ECL Plus (Perkin-Elmer) or Clarity (BioRad) and imaged using the ChemiDoc MP Imager (BioRad). To quantify the levels of protein synthesis, the volume intensity in each lane of compound-treated sample was calculated relative to the DMSO-treated sample and normalized to GAPDH loading control using ImageLab software (BioRad) from at least four independent experiments.

[2] = tested on: HIV-1 US RNA; experiment: FISH of HIV-1 US RNA and GagGFP in HeLa rtTA HIV GagGFP C7 cells; conditions: 791 30 µM, 833 2 µM, 892 15 µM
Method: Changes in HIV-1 US RNA subcellular distribution in response to compound treatment was analyzed by fluorescent in situ hybridization in HeLa HIVrtTA GagGFP cells, as described by Wong et al.. Following washing to remove unbound probe, nuclei were stained with DAPI and images were acquired using a Leica DMR microscope at 630× magnification.

[3] = XTT cell metabolism/viability assay, HeLa; conditions: human, HeLa rtTA HIV∆Mls cells
Method: Effects of compound treatment on cellular metabolism was assessed by an XTT-based in vitro toxicology assay kit (Sigma-Aldrich) or Trypan blue exclusion (Life Technologies) as proxy for degree of cytotoxicity and expressed relative to DMSO control treatment. For measurement of cell viability using XTT, culture media was removed after 24, 72, and 96 h of compound treatment, replaced with 20% XTT solution and incubated at 37 °C in a 5% CO2 humidified incubator for 2–6 h, and relative cell viability was measured in compound treated cells relative to DMSO-treated cells. Cell viability measurements in CEM-GXR cells are described above.

[4] = tested on: Nap1; experiment: Western blot of Nap1; conditions: 791 30 µM, 833 2 µM, 892 15 µM, 24 h
Method: ELISA for p24 Gag antigen was performed on cell supernatants using kits purchased from Frederick National Laboratory for Cancer Research (Leidos) or XpressBio extended range kit and performed according to manufacturer’s instructions. Protein concentration in cell lysates was quantified by Bradford assay and equal amounts of protein run on 7, 10, 12, or 14% SDS-PAGE, depending on the protein of interest. Following transfer to PVDF (BioRad or Perkin-Elmer), blots were blocked in either 5% Milk-PBS-T (5% Milk, 0.05% Tween-20, 1× PBS) or 3% BSA-PBS-T (3% BSA, 0.05% Tween-20, 1× PBS) prior to incubating with primary antibody (all diluted in 3% BSA-PBS-T). Primary antibodies used were: purified mouse anti-p24 supernatant from anti-HIV-1 Gag hybridoma 183, mouse anti-gp120 hybridoma 902 (NIH AIDS Reagent Program), mouse monoclonal antibody to HIV-1 Rev (Abcam), rabbit polyclonal antibody to HIV-1 Tat (Abcam), mouse monoclonal antibody to p53 (Santa Cruz), rabbit purified IgG for Nap1 (provided by L. Frappier), rabbit polyclonal antibody to GAPDH (Sigma-Aldrich), or mouse monoclonal antibody to α-Tubulin (Sigma-Aldrich). Following incubation with appropriate secondary antibody, blots were visualized by ECL, ECL Plus (Perkin-Elmer), or Clarity Western ECL substrate (BioRad). Quantification of the relative intensity of the detected bands was done using ImageLab software and normalized to corresponding bands of the loading control (GAPDH or α-Tubulin).

[5] = tested on: HIV-1 Tat; experiment: Tat protein decay in the presence of cycloheximide; conditions: cycloheximide 10 µg/ml (Figure S4)
Method: To assess effect of compounds on HIV-1 Tat stability, the decay of HIV-1 Tat levels was compared between DMSO-treated and compound-treated protein lysates in the presence of cycloheximide. In the first set of experiments, HIV-1 gene expression was induced with doxycylin (dox) for 24 h then 10 μg/mL cycloheximide was added to block new protein synthesis in combination with either DMSO or the compounds. Cells were harvested every 2 h and Tat protein levels measured by western blot. Quantification of the relative intensity of the detected bands was performed using ImageLab software (BioRad) and normalized to corresponding bands of the loading control (GAPDH) from at least three independent experiments. To determine whether the compounds’ effect on HIV-1 gene expression could be reversed by inhibition of the proteasome, compound treatment assay was performed as previously described with the addition of 10 μM MG132 (Sigma-Aldrich) to compound-treated cells 8 h prior to harvesting. Equal amounts of protein were run on 13 or 14% gels by SDS-PAGE, blotted and probed with antibodies for Tat and GAPDH. Quantification of the relative intensity of the detected bands was performed using ImageLab software (BioRad) and normalized to corresponding bands of the loading control (GAPDH) from at least three independent experiments.

Cc1cc(NCc2cccnc2)n2ncc(-c3ccc(Cl)cc3)c2n1 [Compound 791, 3-(4-chlorophenyl)-5-methyl-N-(3-pyridinylmethyl)pyrazolo[1,5-a]pyrimidin-7-amine]
reduction in protein synthesis relative to DMSO [1]: little or no effect
GagGFP levels relative to DMSO [2]: reduced
cytoplasmic accumulation of HIV-1 US RNA [2]: prevented cytoplasmic accumulation
CC50 [3]: > 40 µM
reduction of Nap1 expression [4]: approximately 50%
half-life of HIV-1 Tat relative to DMSO [5]: do not alter

O=C(NC(=S)NNC(=O)c1ccccc1O)c1ccc(-c2ccccc2)cc1 [Compound 833, N-([2-(2-hydroxybenzoyl)hydrazino]carbonothioyl}-4-biphenylcarboxamide]
reduction in protein synthesis relative to DMSO [1]: little or no effect
GagGFP levels relative to DMSO [2]: reduced
cytoplasmic accumulation of HIV-1 US RNA [2]: prevented cytoplasmic accumulation
CC50 [3]: ≥ 40 µM
reduction of Nap1 expression [4]: more variable
half-life of HIV-1 Tat relative to DMSO [5]: do not alter

COc1ccc(C=NNC(=O)c2ccccc2O)cc1O [Compound 892, 2-hydroxy-N′-(3-hydroxy-4-methoxybenzylidene)benzohydrazide]
reduction in protein synthesis relative to DMSO [1]: ~ 25%
GagGFP levels relative to DMSO [2]: reduced
cytoplasmic accumulation of HIV-1 US RNA [2]: prevented cytoplasmic accumulation
CC50 [3]: > 40 µM
reduction of Nap1 expression [4]: no effect
half-life of HIV-1 Tat relative to DMSO [5]: do not alter

From PMC5267425, “Identification of small molecule modulators of HIV-1 Tat and Rev protein accumulation” (Retrovirology, 2017)
